Like-named read-outs stand apart in the source and are kept apart here. Square brackets hold non-standard residues; d marks the D form. Peptide text beside a SMILES is read from it. Nspe(4-Br) = C[C@H](NCC(=O)O)c1ccc(Br)cc1; Nspe = C[C@H](NCC(=O)O)c1ccccc1; Nlys = NCCCCNCC(=O)O
Experiments:
S. aureus 105 = test system: S. aureus 105
How it was run: (§1)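 Cation-adjusted MHB for antibiotics, plain MHB for peptidomimetics; 5 × 10^5 CFU ml^−1; 16–20 h at 37°C, 120 rpm. Geometric mean MIC across pathogens calculated for peptoids.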

K. pneumoniae JIE2709 = test system: K. pneumoniae JIE2709
How it was run: as §1

A. baumannii 008 = test system: A. baumannii 008
How it was run: as §1

En. cloacae 003 = test system: En. cloacae 003
How it was run: as §1

E. coli 0010 = test system: E. coli 0010
How it was run: as §1

S. aureus 117 = test system: S. aureus 117
How it was run: as §1

E. coli 0011 = test system: E. coli 0011
How it was run: as §1

P. aeruginosa AR-1270 = test system: P. aeruginosa AR-1270
How it was run: as §1

En. cloacae 005 = test system: En. cloacae 005
How it was run: as §1

A. baumannii 005 = test system: A. baumannii 005
How it was run: as §1

A. baumannii 007 = test system: A. baumannii 007
How it was run: as §1

A. baumannii ATCC 19 606 = test system: A. baumannii ATCC 19 606
How it was run: as §1

E. coli 005 = test system: E. coli 005
How it was run: as §1

E. coli 0015 = test system: E. coli 0015
How it was run: as §1

A. baumannii 006 = test system: A. baumannii 006
How it was run: as §1

[1] = test system: Enteroc. faecalis NCTC 13 379
How it was run: as §1

P. aeruginosa 216 = test system: P. aeruginosa 216
How it was run: as §1

S. aureus 04 = test system: S. aureus 04
How it was run: as §1

[2] = test system: horse red blood cells (RBCs); assay: Haemolysis assay; assay type: cell-based
Protocol: The haemolytic activity of the peptidomimetics was performed to determine mammalian cell safety. This assay used horse red blood cells (RBCs) (Sigma–Aldrich, USA) as described previously (Willcox et al. [2008], Chongsiriwatana et al. [2017], Yasir et al. [2019b]). RBCs were washed three times with PBS at 470 g for 5 min. Peptoids (0.5–250 μg ml^−1) were prepared in PBS and added to washed RBCs, then incubated at 37°C for 4 h. After incubation, cells were centrifuged at 1057 g for 10 min, and the supernatant’s OD at 540 nm was measured for lysis. PBS-only RBCs served as the negative control (no haemolysis), and Milli-Q water-treated RBCs as the positive control (100% lysis). Percent haemolysis was calculated as: (ODT − ODNC)/(ODPC − ODNC) × 100, where ODT, ODNC, and ODPC are the absorbances of the test, negative, and positive controls, respectively. This experiment was performed in triplicate.

C. auris CBS12373 = assay: Broth microdilution MIC; assay type: cell-based, Candida auris
[3] = S. aureus 105, MHB (melimine/Mel4 with 0.2% BSA, 0.01% acetic acid), mean MIC
[4] = K. pneumoniae JIE2709, MHB (melimine/Mel4 with 0.2% BSA, 0.01% acetic acid), mean MIC
[5] = A. baumannii 008, MHB (melimine/Mel4 with 0.2% BSA, 0.01% acetic acid), mean MIC
[6] = En. cloacae 003, MHB (melimine/Mel4 with 0.2% BSA, 0.01% acetic acid), mean MIC
[7] = E. coli 0010, MHB (melimine/Mel4 with 0.2% BSA, 0.01% acetic acid), mean MIC
[8] = S. aureus 117, MHB (melimine/Mel4 with 0.2% BSA, 0.01% acetic acid), mean MIC
[9] = E. coli 0011, MHB (melimine/Mel4 with 0.2% BSA, 0.01% acetic acid), mean MIC
[10] = P. aeruginosa AR-1270, MHB (melimine/Mel4 with 0.2% BSA, 0.01% acetic acid), mean MIC
[11] = En. cloacae 005, MHB (melimine/Mel4 with 0.2% BSA, 0.01% acetic acid), mean MIC
[12] = A. baumannii 005, MHB (melimine/Mel4 with 0.2% BSA, 0.01% acetic acid), mean MIC
[13] = A. baumannii 007, MHB (melimine/Mel4 with 0.2% BSA, 0.01% acetic acid), mean MIC
[14] = A. baumannii ATCC 19 606, MHB (melimine/Mel4 with 0.2% BSA, 0.01% acetic acid), mean MIC
[15] = E. coli 005, MHB (melimine/Mel4 with 0.2% BSA, 0.01% acetic acid), mean MIC
[16] = E. coli 0015, MHB (melimine/Mel4 with 0.2% BSA, 0.01% acetic acid), mean MIC
[17] = A. baumannii 006, MHB (melimine/Mel4 with 0.2% BSA, 0.01% acetic acid), mean MIC
[18] = Enteroc. faecalis NCTC 13 379, MHB (melimine/Mel4 with 0.2% BSA, 0.01% acetic acid), mean MIC
[19] = P. aeruginosa 216, MHB (melimine/Mel4 with 0.2% BSA, 0.01% acetic acid), mean MIC
[20] = S. aureus 004, MHB (melimine/Mel4 with 0.2% BSA, 0.01% acetic acid), mean MIC
[21] = CBS 12 373, RPMI 1640 with MOPS, 5 × 10^3 CFU ml^−1, ≥90% reduction (≥50% for fluconazole)

## C[C@@H](c1ccc(Br)cc1)N(CC(=O)N(CCCCN)CC(=O)N(CC(=O)N(CC(=O)N(CCCCN)CC(N)=O)[C@@H](C)c1ccc(Br)cc1)[C@@H](C)c1ccccc1)C(=O)CN(C(=O)CNCCCCN)[C@@H](C)c1ccccc1 [TM12] (H-[Nlys][Nspe][Nspe(4-Br)][Nlys][Nspe][Nspe(4-Br)][Nlys]-NH2)
S. aureus 105; 105
  MIC of peptidomimetics: 6.5 µM
S. aureus 105; [3]
  MIC of peptidomimetics: 7.8 µg/mL
K. pneumoniae JIE2709; JIE2709
  MIC of peptidomimetics: 103.8 µM
K. pneumoniae JIE2709; [4]
  MIC of peptidomimetics: 125 µg/mL
A. baumannii 008; 008
  MIC of peptidomimetics: 51.8 µM
A. baumannii 008; [5]
  MIC of peptidomimetics: 62.5 µg/mL
En. cloacae 003
  MIC of peptidomimetics: 3.3 µM
En. cloacae 003; [6]
  MIC of peptidomimetics: 3.9 µg/mL
E. coli 0010; 0010
  MIC of peptidomimetics: 103.8 µM
E. coli 0010; [7]
  MIC of peptidomimetics: 125 µg/mL
S. aureus 117; 117
  MIC of peptidomimetics: 3.3 µM
S. aureus 117; [8]
  MIC of peptidomimetics: 3.9 µg/mL
E. coli 0011; 0011
  MIC of peptidomimetics: 25.9 µM
E. coli 0011; [9]
  MIC of peptidomimetics: 31.3 µg/mL
P. aeruginosa AR-1270; AR-1270
  MIC of peptidomimetics: 103.8 µM
P. aeruginosa AR-1270; [10]
  MIC of peptidomimetics: 125 µg/mL
En. cloacae 005
  MIC of peptidomimetics: 13.0 µM
En. cloacae 005; [11]
  MIC of peptidomimetics: 15.6 µg/mL
A. baumannii 005; 005
  MIC of peptidomimetics: 51.8 µM
A. baumannii 005; [12]
  MIC of peptidomimetics: 62.5 µg/mL
A. baumannii 007; 007
  MIC of peptidomimetics: 51.8 µM
A. baumannii 007; [13]
  MIC of peptidomimetics: 62.5 µg/mL
A. baumannii ATCC 19 606; [14]
  MIC of peptidomimetics: 125 µg/mL
A. baumannii ATCC 19 606; ATCC 19
  MIC of peptidomimetics: 103.8 µM
E. coli 005; 005
  MIC of peptidomimetics: 103.8 µM
E. coli 005; [15]
  MIC of peptidomimetics: 125 µg/mL
E. coli 0015; 0015
  MIC of peptidomimetics: 51.8 µM
E. coli 0015; [16]
  MIC of peptidomimetics: 62.5 µg/mL
A. baumannii 006; 006
  MIC of peptidomimetics: 103.8 µM
A. baumannii 006; [17]
  MIC of peptidomimetics: 125 µg/mL
[1]; [18]
  MIC of peptidomimetics: 7.8 µg/mL
[1]; NCTC 13
  MIC of peptidomimetics: 6.5 µM
P. aeruginosa 216; 216
  MIC of peptidomimetics: 25.9 µM
P. aeruginosa 216; [19]
  MIC of peptidomimetics: 31.3 µg/mL
S. aureus 04; 04
  MIC of peptidomimetics: 3.3 µM
S. aureus 04; [20]
  MIC of peptidomimetics: 3.9 µg/mL
[2]
  HD10 (10% haemolytic dose): 66.4 µmol/L
  HD50 (50% haemolytic dose): 212.6 µmol/L
[2]; red cells of horse, 4 h
  HD10 (10% haemolytic dose): 80 µg/mL
  HD50 (50% haemolytic dose): > 256 µg/mL
C. auris CBS12373; [21]
  MIC against C. auris: 3.9 µg/mL
C. auris CBS12373; CBS12373
  MIC against C. auris: 3.2 µM

## C[C@@H](c1ccc(Br)cc1)N(CC(=O)N(CCCCN)CC(=O)N(CC(=O)N(CC(=O)N(CCCCN)CC(N)=O)[C@@H](C)c1ccc(Br)cc1)[C@@H](C)c1ccc(Br)cc1)C(=O)CN(C(=O)CNCCCCN)[C@@H](C)c1ccc(Br)cc1 [TM14] (H-[Nlys][Nspe(4-Br)][Nspe(4-Br)][Nlys][Nspe(4-Br)][Nspe(4-Br)][Nlys]-NH2)
S. aureus 105; 105
  MIC of peptidomimetics: 2.9 µM
S. aureus 105; [3]
  MIC of peptidomimetics: 3.9 µg/mL
K. pneumoniae JIE2709; JIE2709
  MIC of peptidomimetics: 45.9 µM
K. pneumoniae JIE2709; [4]
  MIC of peptidomimetics: 62.5 µg/mL
A. baumannii 008; 008
  MIC of peptidomimetics: 23.0 µM
A. baumannii 008; [5]
  MIC of peptidomimetics: 31.3 µg/mL
En. cloacae 003
  MIC of peptidomimetics: 45.9 µM
En. cloacae 003; [6]
  MIC of peptidomimetics: 62.5 µg/mL
E. coli 0010; 0010
  MIC of peptidomimetics: 23.0 µM
E. coli 0010; [7]
  MIC of peptidomimetics: 31.3 µg/mL
S. aureus 117; 117
  MIC of peptidomimetics: 5.7 µM
S. aureus 117; [8]
  MIC of peptidomimetics: 7.8 µg/mL
E. coli 0011; 0011
  MIC of peptidomimetics: 23.0 µM
E. coli 0011; [9]
  MIC of peptidomimetics: 31.3 µg/mL
P. aeruginosa AR-1270; AR-1270
  MIC of peptidomimetics: 45.9 µM
P. aeruginosa AR-1270; [10]
  MIC of peptidomimetics: 62.5 µg/mL
En. cloacae 005
  MIC of peptidomimetics: 45.9 µM
En. cloacae 005; [11]
  MIC of peptidomimetics: 62.5 µg/mL
A. baumannii 005; 005
  MIC of peptidomimetics: 11.4 µM
A. baumannii 005; [12]
  MIC of peptidomimetics: 15.6 µg/mL
A. baumannii 007; 007
  MIC of peptidomimetics: 23.0 µM
A. baumannii 007; [13]
  MIC of peptidomimetics: 31.3 µg/mL
A. baumannii ATCC 19 606; [14]
  MIC of peptidomimetics: 31.3 µg/mL
A. baumannii ATCC 19 606; ATCC 19
  MIC of peptidomimetics: 23.0 µM
E. coli 005; 005
  MIC of peptidomimetics: 23.0 µM
E. coli 005; [15]
  MIC of peptidomimetics: 31.3 µg/mL
E. coli 0015; 0015
  MIC of peptidomimetics: 23.0 µM
E. coli 0015; [16]
  MIC of peptidomimetics: 31.3 µg/mL
A. baumannii 006; 006
  MIC of peptidomimetics: 11.4 µM
A. baumannii 006; [17]
  MIC of peptidomimetics: 15.6 µg/mL
[1]; [18]
  MIC of peptidomimetics: 7.8 µg/mL
[1]; NCTC 13
  MIC of peptidomimetics: 5.7 µM
P. aeruginosa 216; 216
  MIC of peptidomimetics: 11.5 µM
P. aeruginosa 216; [19]
  MIC of peptidomimetics: 15.6 µg/mL
S. aureus 04; 04
  MIC of peptidomimetics: 5.7 µM
S. aureus 04; [20]
  MIC of peptidomimetics: 7.8 µg/mL
[2]
  HD10 (10% haemolytic dose): 7.0 µmol/L
  HD50 (50% haemolytic dose): 17.6 µmol/L
[2]; red cells of horse, 4 h
  HD10 (10% haemolytic dose): 9.6 µg/mL
  HD50 (50% haemolytic dose): 24 µg/mL
C. auris CBS12373; [21]
  MIC against C. auris: 3.9 µg/mL
C. auris CBS12373; CBS12373
  MIC against C. auris: 2.9 µM
